Laboratory results taken from patent US11096968B2, “Use of anti-aging glycoprotein for enhancing survival of neurosensory precursor cells” (PROTOKINETIX INC., priority 2016, dated 2021).

How the values were obtained:
[1] = system: photoreceptor precursor cells (PPCs); assay: MTT assay of cultured PPCs treated with increasing amounts of PGE2; format: cell-based, human; settings: PPCs cultured 48 hours with increasing PGE2, up to 50 μM; n=4
Procedure: (§1) FIG. 2 illustrates that AAGP™ reduces the amount of prostaglandin E2 (PGE2) secreted by degenerating explants and the level of COX-2 expression. PGE2 is toxic to photoreceptor precursor cells (PPCs). (A) Rat retinal explants were cultured in explant medium with or without 4 mg/ml AAGP (n=3 for each condition). Explant media was replaced after 24 hours and replenished every other day with medium not containing AAGP. After ten days, explant medium was collected and processed for PGE2 ELISA. Histograms represent the amount of PGE2 (pg/ml) present in the explant medium. (B) COX-2 expression was assessed by RT-qPCR in stressed ARPE-19 cells in the presence or absence of 4 mg/ml AAGP (n=4). Histograms represent fold change in COX-2 expression, normalized to GAPDH. […]
Firstly, the amount of PGE2 produced is determined within the ex vivo system under normal culture conditions and after media is supplemented with 4 mg/ml AAGP for the first 24 hours of co-culture. Three equal-sized retinal quadrants, measuring ˜10 mm^2 each, and are analyzed for each condition. Explant media are collected at the end of 10 days and assessed for concentration of PGE2 by enzyme-linked immunosorbent assay (ELISA; R&D Systems). PGE2 induced reduction in metabolic activity, contributing to cell death, is assessed in PPCs cultured in isolation using a Thiazolyl Blue Tetrazolium Bromide (MTT) assay (Sigma). […]

PPCs = assay: Toxicity of AAGP to PPCs (unpublished data); format: cell-based, human; settings: 4 mg/ml
Procedure: Now referring to FIG. 1, within the ex vivo system, rat neurosensory retinal explants are incubated upon human embryonic stem cells (hESC) derived retinal pigment epithelium (RPE). Neurosensory retina was obtained from the S334ter-4 model of retinal degeneration (Chen et al, 1995) and cultured within the system for 10 days (for detailed experimental design see Yanai et al., 2015). Rodent retinal tissue collection was carried out with approval of the Animal Care Committee at the University of British Columbia and in accordance with the Association for Research in Vision and Ophthalmology Statement for the Use of Animals in Ophthalmic and Vision Research. Throughout the present study, AAGP™ was used at 4 mg/ml, after it was confirmed it was not toxic to PPCs at this concentration (unpublished data).

[2] = system: COX-2 expression in stressed ARPE-19 cells; assay: COX-2 expression by RT-qPCR in ARPE-19 cell stress assay (IL-1β followed by ATP); format: cell-based, human; settings: stressed ARPE-19 cells (17 ng/ml IL-1β 8 h, then 5 mM ATP 1 h) in presence of 4 mg/ml AAGP; normalized to GAPDH; n=4
Procedure: as §1, with “GAPDH. (C) Cultured PPCs were treated with increasing amounts of PGE2 for 48 hours, followed by the MTT assay (n=4).” for “GAPDH.”
To determine whether AAGP™ inhibits COX-2 expression, ARPE-19 cells (Dunn et al., 1996) are treated with 17 ng/ml Interleukin 1β (IL-1β; Sigma; Lukiw et al., 2006) for 8 hours and then added 5 mM ATP for 1 hour to further induce cell stress (Sigma; Mehta et al., 2001). […] COX-2 expression is assessed using Reverse Transcription Quantitative Polymerase Chain Reaction (RT-qPCR) with the TaqMan® primer/probe system, Fast Advanced Master Mix and the ViiA™ 7 Real Time PCR system (Applied Biosystems). […]

[3] = system: photoreceptor precursor cells (PPCs); assay: PPC survival in ex vivo co-culture system, viable labelled PPCs counted by FACS; format: cell-based, human; settings: PPCs pre-treated 24 hours with 4 mg/ml AAGP, 10 days of co-culture
Procedure: FIG. 3 illustrates that Cell survival is enhanced by pre-incubation with AAGP™. Untreated or AAGP™-treated PPCs are fluorescently labelled and placed between retinal explants and RPE for ten days (n=4). Live PPCs are separated by Fluorescence-Activated Cell Sorting and the proportion of cells surviving after 10 days of co-culture was calculated. Percent cell survival of untreated and AAGP-treated PPCs was plotted ( ? ) and for each condition the average±SEM is represented by a thick black line.
To determine whether AAGP™ improves PPC survival in the ex vivo system, PPC cell viability is assessed with and without pre-treating cell grafts with AAGP™ for 24 hours prior to inclusion within the ex vivo system. PPCs are labelled with 20 μM CellTrace™ Far Red DDAO-SE (Life Technologies). […] After 10 days, the components of the co-culture system are enzymatically dissociated into single cell suspensions and the number of viable PPCs is assessed by Fluorescence-Activated Cell Sorting (FACS; Influx Sorter; BD Biosciences).
Finally, the viability of PPCs in the ex vivo system is tested. […] Ten days later, the co-cultured components were dissociated into single cells and viable PPCs (labeled red) were separated by Fluorescence activated cell sorting (FACS, FIG. 3). The proportion of live cells remaining after 10 days of co-culture is calculated. […]

[4] = system: prostaglandin E2 (PGE2) secreted by degenerating retinal explants; assay: PGE2 ELISA of explant medium from ex vivo retinal explant/RPE co-culture; format: cell-based, rat; settings: 4 mg/ml AAGP present for the first day, medium collected after 10 days of co-culture; n=3; p<0.05; without AAGP ~20 pg/ml
Procedure: as §1
Firstly, the amount of PGE2 produced is determined within the ex vivo system under normal culture conditions and after media is supplemented with 4 mg/ml AAGP for the first 24 hours of co-culture. Three equal-sized retinal quadrants, measuring ˜10 mm^2 each, and are analyzed for each condition. Explant media are collected at the end of 10 days and assessed for concentration of PGE2 by enzyme-linked immunosorbent assay (ELISA; R&D Systems). PGE2 induced reduction in metabolic activity, contributing to cell death, is assessed in PPCs cultured in isolation using a Thiazolyl Blue Tetrazolium Bromide (MTT) assay (Sigma).

CCCCC[C@H](O)/C=C/[C@H]1[C@H](O)CC(=O)[C@@H]1C/C=C\CCCC(=O)O [PGE2, prostaglandin E2]
reduction of cell survival (MTT) [1]: up to 44%

C[C@H](NC(=O)[C@H](C)NC(=O)[C@@H](N)CCCCNC(=O)C(F)(F)C1(O)O[C@H](CO)[C@H](O)[C@H](O)[C@H]1O)C(=O)O (some centres unmarked) [AAGP™]
toxicity to PPCs (PPCs): not toxic | decline in COX-2 expression [2]: at least 13.3±4.5 fold | increase in average cell viability vs. untreated PPCs [3]: ~3 fold | amount of PGE2 in explant medium [4]: ~7.5 pg/mL
